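Five compound concentrations were applied to cells in 96-well plates for 48 hours; endpoints were derived by simple linear interpolation of the resulting dose-response curve. At the TGI there is no net growth.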
Assays:
Assay in all cases: NCI-60 cell line screen, 48 h
786-0 renal = tested on: 786-0 renal
A498 renal = tested on: A498 renal
A549 NSCLC = tested on: A549 NSCLC
ACHN renal = tested on: ACHN renal
BT-549 breast = tested on: BT-549 breast
CAKI-1 renal = tested on: CAKI-1 renal
CCRF-CEM leukemia = tested on: CCRF-CEM leukemia
COLO 205 colon = tested on: COLO 205 colon
DU-145 prostate = tested on: DU-145 prostate
EKVX NSCLC = tested on: EKVX NSCLC
HCC-2998 colon = tested on: HCC-2998 colon
HCT-116 colon = tested on: HCT-116 colon
HCT-15 colon = tested on: HCT-15 colon
HL-60(TB) leukemia = tested on: HL-60(TB) leukemia
HOP-62 NSCLC = tested on: HOP-62 NSCLC
HOP-92 NSCLC = tested on: HOP-92 NSCLC
HS 578T breast = tested on: HS 578T breast
HT29 colon = tested on: HT29 colon
IGROV1 ovarian = tested on: IGROV1 ovarian
K-562 leukemia = tested on: K-562 leukemia
KM12 colon = tested on: KM12 colon
LOX IMVI melanoma = tested on: LOX IMVI melanoma
M14 melanoma = tested on: M14 melanoma
MALME-3M melanoma = tested on: MALME-3M melanoma
MCF7 breast = tested on: MCF7 breast
MDA-MB-231 breast = tested on: MDA-MB-231 breast
MDA-MB-435 = tested on: MDA-MB-435
MDA-N = tested on: MDA-N
MOLT-4 leukemia = tested on: MOLT-4 leukemia
NCI-H226 lung = tested on: NCI-H226 lung
NCI-H23 lung = tested on: NCI-H23 lung
NCI-H460 lung = tested on: NCI-H460 lung
NCI-H522 lung = tested on: NCI-H522 lung
NCI/ADR-RES ovarian = tested on: NCI/ADR-RES ovarian
OVCAR-3 ovarian = tested on: OVCAR-3 ovarian
OVCAR-4 ovarian = tested on: OVCAR-4 ovarian
OVCAR-5 ovarian = tested on: OVCAR-5 ovarian
OVCAR-8 ovarian = tested on: OVCAR-8 ovarian
PC-3 prostate = tested on: PC-3 prostate
RPMI-8226 leukemia = tested on: RPMI-8226 leukemia
RXF 393 renal = tested on: RXF 393 renal
SF-268 CNS = tested on: SF-268 CNS
SF-295 CNS = tested on: SF-295 CNS
SF-539 CNS = tested on: SF-539 CNS
SK-MEL-2 melanoma = tested on: SK-MEL-2 melanoma
SK-MEL-28 melanoma = tested on: SK-MEL-28 melanoma
SK-MEL-5 melanoma = tested on: SK-MEL-5 melanoma
SK-OV-3 ovarian = tested on: SK-OV-3 ovarian
SN12C renal = tested on: SN12C renal
SNB-19 CNS = tested on: SNB-19 CNS
SNB-75 CNS = tested on: SNB-75 CNS
SR leukemia = tested on: SR leukemia
SW-620 colon = tested on: SW-620 colon
T-47D breast = tested on: T-47D breast
TK-10 renal = tested on: TK-10 renal
U251 CNS = tested on: U251 CNS
UACC-257 melanoma = tested on: UACC-257 melanoma
UACC-62 melanoma = tested on: UACC-62 melanoma
UO-31 renal = tested on: UO-31 renal

Compound `CC(C)=CCc1c2c(c3occ(-c4ccc(O)c(O)c4)c(=O)c3c1O)C=CC(C)(C)O2` has a TGI (786-0 renal) of 2.88 µM, a TGI (A498 renal) of 29 µM and a TGI (A549 NSCLC) of 7.6 µM. It also gave a TGI (ACHN renal) of 6.29 µM, a TGI (BT-549 breast) of 13.8 µM and a TGI (CAKI-1 renal) of 3.02 µM. For the same compound, the TGI (CCRF-CEM leukemia) was 2.71 µM, the TGI (COLO 205 colon) was 4.04 µM and the TGI (DU-145 prostate) was 9.32 µM. For the same compound, the TGI (EKVX NSCLC) was 17.3 µM, the TGI (HCC-2998 colon) was 2.45 µM and the TGI (HCT-116 colon) was 4.29 µM. It also gave a TGI (HCT-15 colon) of 5.35 µM, a TGI (HL-60(TB) leukemia) of 0.246 µM and a TGI (HOP-62 NSCLC) of 4.4 µM. It also gave a TGI (HOP-92 NSCLC) of 5 µM, a TGI (HS 578T breast) of 3.73 µM and a TGI (HT29 colon) of 3.84 µM. For the same compound, the TGI (IGROV1 ovarian) was 6 µM, the TGI (K-562 leukemia) was 5.12 µM and the TGI (KM12 colon) was 3.41 µM. It also gave a TGI (LOX IMVI melanoma) of 5.22 µM, a TGI (M14 melanoma) of 3.5 µM and a TGI (MALME-3M melanoma) of 2.53 µM. The TGI (MCF7 breast) was 11.4 µM, the TGI (MDA-MB-231 breast) was 2.97 µM and the TGI (MDA-MB-435) was 3.2 µM. It also gave a TGI (MDA-N) of 3.38 µM, a TGI (MOLT-4 leukemia) of 1.43 µM and a TGI (NCI-H226 lung) of 34.6 µM. It also gave a TGI (NCI-H23 lung) of 3.84 µM, a TGI (NCI-H460 lung) of 3.21 µM and a TGI (NCI-H522 lung) of 0.458 µM. For the same compound, the TGI (NCI/ADR-RES ovarian) was 5.87 µM, the TGI (OVCAR-3 ovarian) was 3.59 µM and the TGI (OVCAR-4 ovarian) was 3.39 µM. It also gave a TGI (OVCAR-5 ovarian) of 21.1 µM, a TGI (OVCAR-8 ovarian) of 9.31 µM and a TGI (PC-3 prostate) of 3.45 µM. The TGI (RPMI-8226 leukemia) was 4.04 µM, the TGI (RXF 393 renal) was 4.14 µM and the TGI (SF-268 CNS) was 4.93 µM. The TGI (SF-295 CNS) was 12.8 µM, the TGI (SF-539 CNS) was 4.14 µM and the TGI (SK-MEL-2 melanoma) was 11.1 µM. It also gave a TGI (SK-MEL-28 melanoma) of 8.66 µM, a TGI (SK-MEL-5 melanoma) of 7.72 µM and a TGI (SK-OV-3 ovarian) of 20.5 µM. For the same compound, the TGI (SN12C renal) was 3.07 µM, the TGI (SNB-19 CNS) was 5.02 µM and the TGI (SNB-75 CNS) was 8.51 µM. For the same compound, the TGI (SR leukemia) was 2.12 µM, the TGI (SW-620 colon) was 2.36 µM and the TGI (T-47D breast) was 10.5 µM. It also gave a TGI (TK-10 renal) of 3.67 µM, a TGI (U251 CNS) of 2.8 µM and a TGI (UACC-257 melanoma) of 4.89 µM. The TGI (UACC-62 melanoma) was 14.2 µM and the TGI (UO-31 renal) was 2.9 µM.
With `O=C(O)[C@@H]1C[C@@H](O)CN1C(=O)OCc1ccccc1` the TGI (786-0 renal) was > 100 µM, the TGI (A498 renal) was > 100 µM and the TGI (A549 NSCLC) was > 100 µM. The TGI (ACHN renal) was > 100 µM, the TGI (BT-549 breast) was > 100 µM and the TGI (CAKI-1 renal) was > 100 µM. The TGI (CCRF-CEM leukemia) was > 100 µM, the TGI (COLO 205 colon) was > 100 µM and the TGI (DU-145 prostate) was > 100 µM. The TGI (EKVX NSCLC) was > 100 µM, the TGI (HCC-2998 colon) was > 100 µM and the TGI (HCT-116 colon) was > 100 µM. The TGI (HCT-15 colon) was > 100 µM, the TGI (HL-60(TB) leukemia) was > 100 µM and the TGI (HOP-62 NSCLC) was > 100 µM. For the same compound, the TGI (HOP-92 NSCLC) was > 100 µM, the TGI (HS 578T breast) was > 100 µM and the TGI (HT29 colon) was > 100 µM. The TGI (IGROV1 ovarian) was > 100 µM, the TGI (K-562 leukemia) was > 100 µM and the TGI (KM12 colon) was > 100 µM. For the same compound, the TGI (LOX IMVI melanoma) was > 100 µM, the TGI (M14 melanoma) was > 100 µM and the TGI (MALME-3M melanoma) was > 100 µM. For the same compound, the TGI (MCF7 breast) was > 100 µM, the TGI (MDA-MB-231 breast) was > 100 µM and the TGI (MDA-MB-435) was > 100 µM. The TGI (MDA-N) was > 100 µM, the TGI (MOLT-4 leukemia) was > 100 µM and the TGI (NCI-H226 lung) was > 100 µM. For the same compound, the TGI (NCI-H23 lung) was > 100 µM, the TGI (NCI-H460 lung) was > 100 µM and the TGI (NCI-H522 lung) was > 100 µM. The TGI (NCI/ADR-RES ovarian) was > 100 µM, the TGI (OVCAR-3 ovarian) was > 100 µM and the TGI (OVCAR-4 ovarian) was > 100 µM. The TGI (OVCAR-5 ovarian) was > 100 µM, the TGI (OVCAR-8 ovarian) was > 100 µM and the TGI (PC-3 prostate) was > 100 µM. The TGI (RPMI-8226 leukemia) was > 100 µM, the TGI (RXF 393 renal) was > 100 µM and the TGI (SF-268 CNS) was > 100 µM. For the same compound, the TGI (SF-295 CNS) was > 100 µM, the TGI (SF-539 CNS) was > 100 µM and the TGI (SK-MEL-2 melanoma) was > 100 µM. For the same compound, the TGI (SK-MEL-28 melanoma) was > 100 µM, the TGI (SK-MEL-5 melanoma) was > 100 µM and the TGI (SK-OV-3 ovarian) was > 100 µM. The TGI (SN12C renal) was > 100 µM, the TGI (SNB-19 CNS) was > 100 µM and the TGI (SNB-75 CNS) was > 100 µM. For the same compound, the TGI (SR leukemia) was > 100 µM, the TGI (SW-620 colon) was > 100 µM and the TGI (T-47D breast) was > 100 µM. The TGI (TK-10 renal) was > 100 µM, the TGI (U251 CNS) was > 100 µM and the TGI (UACC-257 melanoma) was > 100 µM. For the same compound, the TGI (UACC-62 melanoma) was > 100 µM and the TGI (UO-31 renal) was > 100 µM.

Source: PubChem BioAssay (NCI)
